# Results taken from US10519152B2, “Compounds and their use in treating cancer” (AstraZeneca AB, priority 2017, dated 2019).
# Assays:
# [1] = molecular target: T1, recombinant human Estrogen Receptor alpha ligand binding domain, residues 307-554 (ER alpha-LBD (GST)) (Homo sapiens, UniProt P03372); experiment: ERα binding assay (LanthaScreen TR-FRET competition); settings: TR-FRET competition with Fluormone ES2 tracer, 4 hours at room temperature; single experiment or average of two or more
# T1 construct: made in house
# T1 sequence (P03372 307-554): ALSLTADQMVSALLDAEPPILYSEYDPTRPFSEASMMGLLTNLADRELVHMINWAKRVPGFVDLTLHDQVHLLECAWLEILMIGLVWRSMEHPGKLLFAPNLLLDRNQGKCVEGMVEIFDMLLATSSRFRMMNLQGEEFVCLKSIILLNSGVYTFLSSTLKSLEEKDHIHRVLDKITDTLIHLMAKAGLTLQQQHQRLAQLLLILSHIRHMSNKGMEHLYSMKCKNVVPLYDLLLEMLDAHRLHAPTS
# Method: The ability of compounds to bind to isolated Estrogen Receptor Alpha Ligand binding domain (ER alpha-LBD (GST)) was assessed in competition assays using a LanthaScreen™ Time-Resolved Fluorescence Resonance Energy Transfer (TR-FRET) detection end-point. For the LanthaScreen TR-FRET endpoint, a suitable fluorophore (Fluormone ES2, ThermoFisher, Product code P2645) and recombinant human Estrogen Receptor alpha ligand binding domain, residues 307-554 (expressed and purified in-house) were used to measure compound binding. The assay principle is that ER alpha-LBD (GST) is added to a fluorescent ligand to form a receptor/fluorophore complex. A terbium-labelled anti-GST antibody (Product code PV3551) is used to indirectly label the receptor by binding to its GST tag, and competitive binding is detected by a test compound's ability to displace the fluorescent ligand, resulting in a loss of TR-FRET signal between the Tb-anti-GST antibody and the tracer. The assay was performed as follows with all reagent additions carried out using the Beckman Coulter BioRAPTR FRD microfluidic workstation: • 1. Acoustic dispense 120 nL of the test compound into a black low volume 384 well assay plates. • 2. Prepare 1×ER alpha-LBD/Tb-antiGST Ab in ES2 screening buffer and incubate for 15 minutes. • 3. Dispense 6 μL of the […] reagent into each well of the assay plate followed by 6 μL of Fluorophore reagent into each well of the assay plate • 4. Cover the assay plate to protect the reagents from light and evaporation, and incubate at room temperature for 4 hours. • 5. Excite at 337 nm and measure the fluorescent emission signal of each well at 490 nm and 520 nm using the BMG PheraSTAR.
# Compounds were dosed directly from a compound source microplate containing serially diluted compound (4 wells containing 10 mM, […] and 10 nM final compound respectively) to an assay microplate using the Labcyte Echo 550. The Echo 550 is a liquid handler that uses acoustic technology to perform direct microplate-to-microplate transfers of DMSO compound solutions and the system can be programmed to transfer multiple small nL volumes of compound from the different source plate wells to give the desired serial dilution of compound in the assay which is then back-filled to normalise the DMSO concentration across the dilution range.
# In total 120 nL of compound plus DMSO were added to each well and compounds were tested in a 12-point concentration response format over a final compound concentration range of 10, 2.917, 1.042, 0.2083, 0.1, 0.0292, 0.0104, 0.002083, 0.001, 0.0002917, 0.0001042, and 0.00001 μM respectively. TR-FRET dose response data obtained with each compound was exported into a suitable software package (such as Origin or Genedata) to perform curve fitting analysis. Competitive ER alpha binding was expressed as an IC50 value. This was determined by calculation of the concentration of compound that was required to give a 50% reduction in tracer compound binding to ER alpha-LBD.
# [2] = molecular target: T2, Estrogen Receptor (ERα) in MCF-7 human ductal carcinoma breast cell line (Homo sapiens, UniProt P03372); experiment: MCF-7 ER degradation assay (cell based immuno-fluorescence); settings: MCF-7 cells; for DC50: 18-22 hours incubation, 50% reduction of ERα expression, single experiment or average of two or more, read-out: MCF-7 ER degradation IC50
# T2 construct: endogenous in cells; host or cells: MCF-7
# T2 sequence (P03372 1-595): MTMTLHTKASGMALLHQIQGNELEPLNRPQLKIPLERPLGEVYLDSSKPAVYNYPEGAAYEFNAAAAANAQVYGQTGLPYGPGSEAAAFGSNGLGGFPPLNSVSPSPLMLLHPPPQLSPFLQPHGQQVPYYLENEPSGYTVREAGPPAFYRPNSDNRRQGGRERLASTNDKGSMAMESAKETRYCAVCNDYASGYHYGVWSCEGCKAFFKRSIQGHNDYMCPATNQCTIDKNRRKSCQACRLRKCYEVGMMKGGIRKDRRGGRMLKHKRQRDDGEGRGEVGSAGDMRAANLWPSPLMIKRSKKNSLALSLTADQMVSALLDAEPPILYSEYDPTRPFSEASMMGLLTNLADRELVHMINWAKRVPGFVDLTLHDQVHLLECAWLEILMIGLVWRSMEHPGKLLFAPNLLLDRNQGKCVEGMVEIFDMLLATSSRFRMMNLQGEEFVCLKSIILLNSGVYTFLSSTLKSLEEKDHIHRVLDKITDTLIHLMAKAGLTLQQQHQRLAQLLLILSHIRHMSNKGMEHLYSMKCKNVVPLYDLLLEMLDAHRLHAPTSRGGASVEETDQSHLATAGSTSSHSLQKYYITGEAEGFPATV
# Method: MCF-7 ER Degradation Assay
# The ability of compounds to down-regulate Estrogen Receptor (ER) numbers was assessed in a cell based immuno-fluorescence assay using the MCF-7 human ductal carcinoma breast cell line. MCF-7 cells were revived directly from a cryovial (approx 5×10^6 cells) in Assay Medium (phenol red free Dulbecco's Modified Eagle's medium (DMEM); Sigma D5921) containing 2 mM L-Glutamine and 5% (v/v) Charcoal/Dextran treated foetal calf serum. Cells were syringed once using a sterile 18 G×1.5 inch (1.2×40 mm) broad gauge needle and cell density was measured using a Coulter Counter (Beckman). Cells were further diluted in Assay Medium to a density of 3.75×10^4 cells per mL and 40 μL per well added to transparent bottomed, black, tissue culture-treated 384 well plates (Costar, No. 3712) using a Thermo Scientific Matrix WellMate or Thermo Multidrop. Following cell seeding, plates were incubated overnight at 37° C., 5% CO2 (Liconic carousel incubator). Test data was generated using the LabCyte Echo™ model 555 compound reformatter which is part of an automated workcell (Integrated Echo 2 workcell). Compound stock solutions (10 mM) of the test compounds were used to generate a 384 well compound dosing plate (Labcyte P-05525-CV1). 40 μL of each of the 10 mM compound stock solutions was dispensed into the first quadrant well and then 1:100 step-wise serial dilutions in DMSO were performed using a Hydra II (MATRIX UK) liquid handling unit to give 40 μL of diluted compound into quadrant wells 2 (0.1 mM), 3 (1 μM) and 4 (0.01 μM), respectively. 40 μL of DMSO added to wells in row P on the source plate allowed for DMSO normalisation across the dose range. To dose the control wells 40 μL of DMSO was added to row O1 and 40 μL of 100 μM fulvestrant in DMSO was added to row O3 on the compound source plate.
# The Echo uses acoustic technology to perform direct microplate-to-microplate transfers of DMSO compound solutions to assay plates. The system can be programmed to transfer volumes as low as 2.5 nL in multiple increments between microplates and in so doing generates a serial dilution of compound in the assay plate which is then back-filled to normalise the DMSO concentration across the dilution range. Compounds were dispensed onto the cell plates with a compound source plate prepared as above producing a 12 point duplicate […] dose range with 3-fold dilutions and one final 10-fold dilution using the Integrated Echo 2 workcell. The maximum signal control wells were dosed with DMSO to give a final concentration of 0.3%, and the minimum signal control wells were dosed with fulvestrant to give a final concentration of 100 nM accordingly. Plates were further incubated for 18-22 hours at 37° C., 5% CO2 and then fixed by the addition of 20 μL of 11.1% (v/v) formaldehyde solution (in phosphate buffered saline (PBS)) giving a final formaldehyde concentration of 3.7% (v/v). Cells were fixed at room temperature for 20 mins before being washed two times with 250 μL PBS/Proclin (PBS with a Biocide preservative) using a BioTek platewasher, 40 μL of PBS/Proclin was then added to all wells and the plates stored at 4° C. The fixing method described above was carried out on the Integrated Echo 2 workcell. Immunostaining was performed using an automated AutoElisa workcell. The PBS/Proclin was aspirated from all wells and the cells permeabilised with 40 μL PBS containing 0.5% Tween™ 20 (v/v) for 1 hour at room temperature. The plates were washed three times in 250 μL of PBS/0.05% (v/v) Tween 20 with Proclin (PBST with a Biocide preservative) and then 20 μL of ERα (SP1) Rabbit monoclonal antibody (Thermofisher) 1:1000 in PBS/Tween™/3% (w/v) Bovine Serum Albumin was added. The plates were incubated overnight at 4° C. (Liconic carousel incubator) and then washed three times in 250 μL of PBS/0.05% (v/v) Tween™ 20 with Proclin (PBST). […]
SMILES,IC50 [1] [nM],DC50 [2] [nM],"ER degradation ≥ 90% at 0.3 μM ([2]; 0.3 μM, ER degradation by fulvestrant at 0.3 μM is defined as 100%)"
"Cc1ncsc1-c1ccc(CNC(=O)[C@@H]2C[C@@H](O)CN2C(=O)[C@@H](NC(=O)CCCNCCCCCCOc2cc(F)c([C@@H]3c4[nH]c5ccccc5c4C[C@@H](C)N3CC(C)(C)F)c(F)c2)C(C)(C)C)cc1 [Example 151, (2S,4R)-1-((S)-2-(4-((6-(3,5-Difluoro-4-((1R,3R)-2-(2-fluoro-2-methylpropyl)-3-methyl-2,3,4,9-tetrahydro-1H-pyrido[3,4-b]indol-1-yl)phenoxy)hexyl)amino)butanamido)-3,3-dimethylbutanoyl)-4-hydroxy-N-(4-(4-methylthiazol-5-yl)benzyl)pyrrolidine-2-carboxamide]",3.6,54,–
"Cc1ncsc1-c1ccc(CNC(=O)[C@@H]2C[C@@H](O)CN2C(=O)[C@@H](NC(=O)CCCCN(C)CCN(C)CCOc2cc(F)c([C@@H]3c4[nH]c5ccccc5c4C[C@@H](C)N3CC(C)(C)F)c(F)c2)C(C)(C)C)cc1 [Example 108, (2S,4R)-1-((S)-2-(5-((2-((2-(3,5-difluoro-4-((1R,3R)-2-(2-fluoro-2-methylpropyl)-3-methyl-2,3,4,9-tetrahydro-1H-pyrido[3,4-b]indol-1-yl)phenoxy)ethyl)(methyl)amino)ethyl)(methyl)amino)pentanamido)-3,3-dimethylbutanoyl)-4-hydroxy-N-(4-(4-methylthiazol-5-yl)benzyl)pyrrolidine-2-carboxamide]",0.6,1.1,–
"Cc1ncsc1-c1ccc(CNC(=O)[C@@H]2C[C@@H](O)CN2C(=O)[C@@H](NC(=O)CN2CCC3(CC2)CCN(C(=O)COc2cc(F)c([C@@H]4c5[nH]c6ccccc6c5C[C@@H](C)N4CC(C)(C)F)c(F)c2)CC3)C(C)(C)C)cc1 [Example 44, (2S,4R)-1-((S)-2-(2-(9-(2-(3,5-difluoro-4-((R,3R)-2-(2-fluoro-2-methylpropyl)-3-methyl-2,3,4,9-tetrahydro-1H-pyrido[3,4-b]indol-1-yl)phenoxy)acetyl)-3,9-diazaspiro[5.5]undecan-3-yl)acetamido)-3,3-dimethylbutanoyl)-4-hydroxy-N-(4-(4-methylthiazol-5-yl)benzyl)pyrrolidine-2-carboxamide]",1.3,1.8,–
"Cc1ncsc1-c1ccc(CNC(=O)[C@@H]2C[C@@H](O)CN2C(=O)[C@@H](NC(=O)COCCCc2cccc(COc3cc(F)c([C@@H]4c5[nH]c6ccccc6c5C[C@@H](C)N4CC(C)(C)F)c(F)c3)c2)C(C)(C)C)cc1 [Example 73, (2S,4R)-1-((S)-2-(2-(3-(3-((3,5-Difluoro-4-((1R,3R)-2-(2-fluoro-2-methylpropyl)-3-methyl-2,3,4,9-tetrahydro-1H-pyrido[3,4-b]indol-1-yl)phenoxy)methyl)phenyl)propoxy)acetamido)-3,3-dimethylbutanoyl)-4-hydroxy-N-(4-(4-methylthiazol-5-yl)benzyl)pyrrolidine-2-carboxamide]",1,–,••
"Cc1ncsc1-c1ccc(CNC(=O)[C@@H]2C[C@@H](O)CN2C(=O)[C@@H](NC(=O)COCC/C=C/CCOc2ccc([C@@H]3c4[nH]c5ccccc5c4C[C@@H](C)N3CC(F)F)nc2)C(C)(C)C)cc1 [Example 21, (2S,4R)-1-((S)-2-(2-(((E)-6-((6-((1S,3R)-2-(2,2-Difluoroethyl)-3-methyl-2,3,4,9-tetrahydro-1H-pyrido[3,4-b]indol-1-yl)pyridin-3-yl)oxy)hex-3-en-1-yl)oxy)acetamido)-3,3-dimethylbutanoyl)-4-hydroxy-N-(4-(4-methylthiazol-5-yl)benzyl)pyrrolidine-2-carboxamide]",13,300,–
